In patent US20260137807A1, “COMPOSITIONS AND METHODS FOR DELIVERING A MACROMOLECULE TO A CELL” (AstraZeneca AB, priority 2022, published 2026):
Entries after “also recorded” stand apart in the source; their conditions may differ.

What was measured:
[1] = Nanoparticle tracking analysis (NTA); format: physicochemical; conditions: 1 μm or 5 μm oligonucleotide incubated with 5 μm AZ4800 for 2 hours
Procedure: Many SSO transfection reagents work through complexation or association with the SSO. A nanoparticle tracking analysis (NTA) was performed to determine whether Compound 2 induced aggregation of oligonucleotides in cell media.
SSO was incubated in cell growth media with and without Compound 2 at 37° C. for 2 hours, mimicking the treatment plan shown in FIG. 10. Analysis was carried out with a Nanosight NS500 instrument running NTA 2.3 analytical software. A script that records 5×30 second videos in light-scatter mode was run with a camera level of 13. Analysis of the videos was then performed with screen gain set to 10 and a detection threshold at 7.

HeLa Luc705 cells = test: Splice switching activity assay (Luc705 luciferase reporter), Example 4A; format: cell-based
Excerpt: (§1) HeLa Luc705 and Huh7 Luc705 cells were used to screen and characterize the SMC generated in Example 2 for their ability to increase levels of an SSO-induced splice variant by co-treatment of the cells with the SSO and SMC. The Luc705 reporter construct was used for quantitation of luciferase protein produced as a result of functional SSO delivery. (Kang et al. (1998) Biochemistry, 37(18):6235-6239; Rocha et al. (2016) Four Novel Splice-Switch Reporter Cell Lines: Distinct Impact of Oligonucleotide Chemistry and Delivery Vector on Biological Activity. Nucleic Acid Ther. 26(6):381). Briefly, a plasmid carrying the luciferase coding sequence interrupted by an insertion of intron 2 from β-globin pre-mRNA carrying a cryptic splice site was stably transfected into cells. Unless the aberrant slice site was masked by an antisense oligonucleotide, the pre-mRNA of luciferase was improperly processed.
(§2) HeLa Luc705 and Huh7 Luc705 cells were seeded in 96-well plates at 10,000 cells per well in growth media containing 1 μM Luc705-SSO and incubated to allow adherence and oligo internalization. After 24 hours, 10 μl of SMC diluted in Growth Media (DMEM+10% FBS) was added into each well. After 2 hours, media was removed from the wells and replaced with fresh growth media for 4 hours to allow for translation of the variant proteins. The media was then removed, and cells were lysed with 0.1% Triton-PBS.
(§3) To detect luciferase activity, 30 μL of cell lysate was transferred to white-walled 96-well plates. Luciferase intensity in each well was measured using a GloMax® 96 Microplate Luminometer machine (Promega) following auto-injection of 25 μL Luciferin substrate (Firefly Luciferase Assay System: Promega) per well. Photon measurements were acquired for 10 seconds, starting 2 seconds after injection.
(§4) To determine whether AZ4800 (Compound 2, FIG. 1B) and SSO must be present in the cell media simultaneously for Compound 2 to produce its synergistic effects, the treatment plan was modified from the UNC2383 treatment plan detailed by Wang et al. (2017) ACS Chem. Biol. 12(8):1999-2007 to include a 24 hour pre-treatment with SSO, followed by the addition of Compound 2 for two hours, followed by the removal of SSO and Compound 2, and finally a 4-hour protein translation period (FIG. 10).

Huh7 Luc705 cells = test: as above; format: cell-based
Excerpt: as §1, §2, §3, §4

MALAT1 mRNA = test: MALAT1 knockdown by gapmer, real-time PCR; format: cell-based, mouse; conditions: 2 μM AZ3327 with 2 μM gapmer, N2A cells, FIG. 28
Procedure: N2A cells were cultured in Dulbecco's modified eagle medium (Gibco, 31,966) containing 10% fetal bovine serum (Gibco, 10,270) and were maintained at 37° C. in a humidified atmosphere containing 5% CO2, 21% O2.
For knockdown analysis of the gapmers, 24-well plates 50,000 N2A cells in 500 μL total volume of media per well. Twenty-four hours later, the cells were treated with 2 μM MALAT1-targeting gapmer oligonucleotide having the sequence GM5CAttm5ctaatagm5cAGM5C, where m5c is 5-methylcytidine and capital letters are LNA nucleosides (SEQ ID NO:4) (Oligo Only), 2 μM MALA T1-targeting gapmer oligonucleotide and simultaneously 2 μM AZ3327 (2 μM AZ3327), or Lipofectamine-complexed MALAT1 Oligonucleotide at 200 nM (LF2000). All treatments were performed in biological triplicates. […] RNA concentration was measured via Nanodrop and cDNA was synthesized with High Capacity cDNA Reverse Transcription kit as per manufacturer's instructions (ThermoFisher Scientific, 4368814).
Real-time PCR reactions were run on QuantStudio 7 Flex Real-Time PCR System (Applied Biosystems) using MALAT1 TaqMan assays (mouse Mm01227912, Applied Biosystems) following the manufacturer's instructions. […] The absolute mRNA expression levels for MALAT1 were calculated by linear regression fitting the PCR product to a standard curve. […]

T-47D cells = test: Co-delivery of Cre recombinase, in vitro editing GFP reporter; format: cell-based; conditions: for editing: 50 nM Cre
Excerpt: Cre recombinase was co-administered with Compound 4 to assess improvement in editing efficiency in an in vitro reporter system in which edited cells express GFP. Total cell counts are shown as unfilled bars (FIG. 43A, left panel); viable cells are shown in light gray shaded bars (FIG. 43A, middle panel); edited cell counts are shown in green shaded bars, and edited cell percentage is shown as the dotted line (FIG. 43A, right panel).
The media change increased cell viability, as shown by the difference between the left and right panels of FIGS. 43B and 43C. […] Greater than 80% editing was observed when Cre protein was co-administered with 2 μM or 3 μM Compound 4 in the media changed condition, and 3 μM Compound 4 in the media unchanged condition.

SMILES	particle size profile of oligonucleotide in cell growth media [1]	increase in SSO activity (HeLa Luc705 cells; 1 μM SSO, 10, 5 or 1 μM compound for 2 hours, FIG. 2A)	increase in functional SSO activity (HeLa Luc705 cells; 5 μM compound, 1 μM SSO or 100 nM SSO, FIG. 2B)	SSO activity, preload only (HeLa Luc705 cells; SSO only pre-treated, removed when compound added, FIG. 11A)	increase in SSO activity with lengthened pre-treatment (HeLa Luc705 cells; SSO pre-treatment 48 hours instead of 24, FIG. 12A)	increase in SSO activity (HeLa Luc705 cells; co-treatment up to 5 μM, plateauing after 2 hours, FIG. 11C) [fold]	SSO activity without the pre-treating step (HeLa Luc705 cells; no pre-load, FIG. 13A)	increase in SSO activity with lengthened pre-treatment (Huh7 Luc705 cells; SSO pre-treatment 48 hours instead of 24, FIG. 12B)	SSO activity without the pre-treating step (Huh7 Luc705 cells; no pre-load, FIG. 13B)	knockdown of MALAT1 mRNA expression as compared to oligo alone (MALAT1 mRNA)	editing efficiency (T-47D cells; 50 nM Cre protein, 0, 1, 2 or 3 μM compound, FIG. 43B)	editing (T-47D cells; 2 μM compound, media changed after 2 hours)	editing (T-47D cells; 3 μM compound, media changed after 2 hours)	editing (T-47D cells; 3 μM compound, media unchanged)
COc1nn(C2CCNCC2)cc1Nc1ncc(Cl)c(-n2ccc3c(C#N)cccc32)n1 [Compound 2]	No significant differences in particle size; also recorded: no significant changes in particle size profile	substantially higher increase in SSO activity than UNC2383	increase in activity	no activity was seen	more pronounced	100	significant activity was observed	more pronounced	significant activity was observed					
COc1nn(C2CCNCC2)cc1Nc1ncc(F)c(-n2ccc3c(C#N)cccc32)n1 [Compound 4]										enhanced knockdown of MALAT1 mRNA expression	improved editing efficiency in T-47D cells in a dose-dependent manner	Greater than 80%	Greater than 80%	Greater than 80%
